Data reported in patent US6831091B2, “Salt forms of 3-(4-bromo-2,6-difluoro-benzyloxy)-5-[3-(4-pyrrolidin-1-yl-butyl)-ureido]-isothiazole-4-carboxylic acid amide and method of production” (priority 2000, dated 2004).

Tests used:
[1] = Hygroscopicity (water uptake at stated relative humidity); assay type: physicochemical; conditions: for hygroscopicity relative to the mesylate salt: compared with mesylate salt; for water absorbed: 90% relative humidity
[2] = Stability in air / deliquescence; assay type: physicochemical; conditions: can be used without deliquescence
[3] = Crystallinity (freedom from amorphous material); assay type: physicochemical; conditions: i.e., substantially free of amorphous material
[4] = Conversion of crystal form in refluxing ethanol; assay type: physicochemical
[5] = Tendency of concentrated aqueous solution to form viscous mixtures upon standing; assay type: physicochemical
[6] = Sedative effect on dosing; assay type: in vivo; conditions: low to moderate dosing
[7] = assay type: physicochemical; conditions: for kinetic solubility relative to free base or hydrochloride: compared with free base or hydrochloride form

Row | Compound | Hygroscopicity ([1]; 87% relative RH) [%] | hygroscopicity relative to the mesylate salt [1] | stability in air [2] | crystallinity [3] | hygroscopic stability [1] | further results
1 | 3-(4-bromo-2,6-difluoro-benzyloxy)-5-[3-(4-pyrrolidin-1-yl-butyl)-ureido]-isothiazole-4-carboxylic acid amide hemi-citrate [Example 4] | 0.43 | less hygroscopic than the mesylate salt | more stable in air | – | – | –
2 | 3-(4-bromo-2,6-difluoro-benzyloxy)-5-[3-(4-pyrrolidin-1-yl-butyl)-ureido]-isothiazole-4-carboxylic acid amide hemi-succinate | – | – | – | high crystallinity | substantially hygroscopically stable | –
3 | 3-(4-bromo-2,6-difluoro-benzyloxy)-5-[3-(4-pyrrolidin-1-yl-butyl)-ureido]-isothiazole-4-carboxylic acid amide hemi-succinate [Example 8] | – | – | – | – | – | Hygroscopicity ([1]; 30° C. and 90% RH, listed as Hemi-succinate crystal form A): 0.6 % w/w; Hygroscopicity ([1]; 90% relative RH): 0.6%; water absorbed ([1]; listed as Form A hemi-succinate): 0.6%
4 | 3-(4-bromo-2,6-difluoro-benzyloxy)-5-[3-(4-pyrrolidin-1-yl-butyl)-ureido]-isothiazole-4-carboxylic acid amide hemi-succinate [Example 9] | – | – | – | – | – | time for conversion of hemi-succinate form B into form A [4]: less than 24 hours; Hygroscopicity ([1]; 30° C. and 90% RH, listed as Hemi-succinate crystal form B): 1.5 % w/w; Hygroscopicity ([1]; 90% relative RH): 1.5%; water absorbed ([1]; listed as Form B hemi-succinate): 1.5%
5 | Cl.NC(=O)c1c(OCc2c(F)cc(Br)cc2F)nsc1NC(=O)NCCCCN1CCCC1 [Example 2, 3-(4-bromo-2,6-difluoro-benzyloxy)-5-[3-(4-pyrrolidin-1-yl-butyl)-ureido]-isothiazole-4-carboxylic acid amide hydrochloride] | – | – | – | high crystallinity | substantially hygroscopically stable | tendency for concentrated aqueous solution to form viscous mixtures upon standing [5]: low tendency; Hygroscopicity ([1]; 90% relative humidity at ambient temperature): 1 % (by weight)
6 | Br.NC(=O)c1c(OCc2c(F)cc(Br)cc2F)nsc1NC(=O)NCCCCN1CCCC1 [Example 3, 3-(4-bromo-2,6-difluoro-benzyloxy)-5-[3-(4-pyrrolidin-1-yl-butyl)-ureido]-isothiazole-4-carboxylic acid amide hydrobromide] | 0.1 | – | – | high crystallinity | substantially hygroscopically stable | sedative effect [6]: mild sedative effect; tendency for concentrated aqueous solution to form viscous mixtures upon standing [5]: low tendency
7 | CC(=O)O.NC(=O)c1c(OCc2c(F)cc(Br)cc2F)nsc1NC(=O)NCCCCN1CCCC1 [Example 5, 3-(4-bromo-2,6-difluoro-benzyloxy)-5-[3-(4-pyrrolidin-1-yl-butyl)-ureido]-isothiazole-4-carboxylic acid amide acetate] | – | – | – | high crystallinity | – | –
8 | Cc1ccc(S(=O)(=O)O)cc1.NC(=O)c1c(OCc2c(F)cc(Br)cc2F)nsc1NC(=O)NCCCCN1CCCC1 [Example 6, 3-(4-bromo-2,6-difluoro-benzyloxy)-5-[3-(4-pyrrolidin-1-yl-butyl)-ureido]-isothiazole-4-carboxylic acid amide p-tosylate] | −0.9 | less hygroscopic than the mesylate salt | more stable in air | – | – | kinetic solubility relative to free base or hydrochloride [7]: greater kinetic solubility than the free base or hydrochloride form
9 | NC(=O)c1c(OCc2c(F)cc(Br)cc2F)nsc1NC(=O)NCCCCN1CCCC1.O=C(O)C(O)C(O)C(=O)O [Example 7, 3-(4-bromo-2,6-difluoro-benzyloxy)-5-[3-(4-pyrrolidin-1-yl-butyl)-ureido]-isothiazole-4-carboxylic acid amide L-tartrate] | – | less hygroscopic than the mesylate salt | more stable in air | – | – | kinetic solubility relative to free base or hydrochloride [7]: greater kinetic solubility than the free base or hydrochloride form; Hygroscopicity ([1]; 100% RH): 0.3%
10 | CS(=O)(=O)O.NC(=O)c1c(OCc2c(F)cc(Br)cc2F)nsc1NC(=O)NCCCCN1CCCC1 [Example 10, 3-(4-bromo-2,6-difluoro-benzyloxy)-5-[3-(4-pyrrolidin-1-yl-butyl)-ureido]-isothiazole-4-carboxylic acid amide mesylate] | – | – | – | high crystallinity | – | kinetic aqueous solubility [7]: rapid kinetic aqueous solubility
